Target mRNA inhibition data for 28 sequences are collected here from the OligoGym collection.

In this data set the target is APOL1. Conditions: ASO.

Several values for one entry are separate records, joined by “and”; a condition that tells them apart may be missing. Identical values can stand only once. After the bases stand the sugars from the 5' end (letter, count) and the backbone: PS all phosphorothioate, else s phosphorothioate and o phosphodiester by linkage. Methylation of C is not given here. e = 2'-O-(2-methoxyethyl) (MOE); k = constrained ethyl (cEt); d = 2'-deoxy (DNA)

“GGCATTCAGAATTTCC (sugars k2 d4 e3 k2 d5, PS)” showed a target mRNA inhibition (A431, 2 µM) of 97%.

Regarding “ATCAGATGGGTACTTC (sugars kkkddddkdkdkdddd, PS)”, the target mRNA inhibition (A431, 2 µM) amounted to 79%. On to “TTATATTTGATCCTCA (sugars kkkddddkekekdddd, PS)”, for which the target mRNA inhibition (A431, 2 µM) was 92%. Same read-out and setting: as for “ACGCAATGCTGACTTG (sugars kekddddeekkddddd, PS)”, the figure is 91%.

The sequence “GGGTTATGAAATTATT (sugars kkddddkekekddddd, PS)” displayed a target mRNA inhibition (A431, 2 µM) of 84%.

“AGCTTTAAACTCAGGT (sugars kkkddddkekekdddd, PS)”: the target mRNA inhibition (A431, 2 µM) was 64%.

In turn, “GTTTTGTAAGTGCAAC (sugars kddddkekekeddddd, PS)” yielded a target mRNA inhibition (A431, 2 µM) of 73%. For AGGTTGTCCAGAGCTT (sugars k4 d9 k3, PS), the target mRNA inhibition runs as follows: (A431, 0.0625 µM) 51%; (A431, 0.25 µM) 60%; (A431, 1 µM) 69%. Turning to “ATTTCTTGATGTGGTG (sugars kdddddkekekddddd, PS)”, the target mRNA inhibition runs as follows: (A431, 0.0156 µM) 22%; (A431, 0.0625 µM) 50%; (A431, 0.25 µM) 80%; (A431, 1 µM) 91%; (A431, 2 µM) 96%. Turning to “AGTATTGCCAGCTAAG (sugars kkdddddkekeddddd, PS)”, the target mRNA inhibition (A431, 2 µM) was 86%. Same read-out and setting: next, “ACGCAATGCTGACTTG (sugars kkkddddkdkdkdddd, PS)”: 70%; “GTTATATTTGATCCTC (sugars kkdddddkekeddddd, PS)”: 97%. Still for that read-out and setting: as for “AAGATTGGCTCTGGCT (sugars kkdddddkekeddddd, PS)”, the figure is 65%.

Consider “GTTTTGTAAGTGCAAC (sugars kkkddddkekekdddd, PS)”, for which, where the note is “A431, 2 µM”, the target mRNA inhibition was 59%. Turning to ATTTCTTGATGTGGTG (sugars k4 d9 k3, PS), the target mRNA inhibition is, setting by setting: (A431, 0.0625 µM) 95%; (A431, 0.25 µM) 99%; (A431, 1 µM) 99%. “CACATCATTGGGTTAT (sugars kkddddekekeddddd, PS)”: the target mRNA inhibition (A431, 2 µM) is 81%. Sequence “GTAAGTATTGCCAGCT (sugars k2 d4 e3 k2 d5, PS)” came in with a target mRNA inhibition (A431, 2 µM) of 89%. Take “CACTTTACATGCACGA (sugars kkddddddddddkeke, PS)”: the target mRNA inhibition reads like this: (A431, 0.0156 µM) 16%; (A431, 0.0625 µM) 35%; (A431, 0.25 µM) 66%; (A431, 1 µM) 87%. In turn, “AAGATTGGCTCTGGCT (sugars kkkddddkekekdddd, PS)” came in with a target mRNA inhibition (A431, 2 µM) of 23%. On to ATTCTCATGGTACAGG (sugars k4 d9 k3, PS), for which the target mRNA inhibition was 24% (A431, 0.0156 µM); 49% and 50% (A431, 0.0625 µM); 83% and 84% (A431, 0.25 µM); 94% and 93% (A431, 1 µM).

Consider TCAGGTGACTACATTT (sugars k4 d9 k3, PS), for which the target mRNA inhibition turned out to be 47% (A431, 0.0625 µM); 67% (A431, 0.25 µM); 84% (A431, 1 µM). As to TTCTTGATGTGGTGGG (sugars k4 d9 k3, PS), the target mRNA inhibition runs as follows: (A431, 0.0625 µM) 58%; (A431, 0.25 µM) 82%; (A431, 1 µM) 91%. Take “GTGTATTTCTTGATGT (sugars kkddddkekekddddd, PS)”: for the setting “A431, 2 µM”, the target mRNA inhibition was determined as 95%.

The sequence “CACTTTATACCAGTGT (sugars kkkddddkekekdddd, PS)” registered a target mRNA inhibition (A431, 2 µM) of 11%. As to “ATCAGATGGGTACTTC (sugars kekddddeekkddddd, PS)”, the target mRNA inhibition (A431, 2 µM) worked out at 91%.

For the sequence “GAAGATTGGCTCTGGC (sugars kkkddddkdkdkdddd, PS)”, the target mRNA inhibition (A431, 2 µM) worked out at 51%.

With GGTTCAAAAGCAGCAT (sugars k4 d9 k3, PS), the target mRNA inhibition was 78% (A431, 0.0625 µM); 91% (A431, 0.25 µM); 95% (A431, 1 µM). As for “AGTATTGCCAGCTAAG (sugars kkddddkekekddddd, PS)”, the target mRNA inhibition (A431, 2 µM) came to 65%.
